Activity calls are given as the source filed them.
Tests used:
[1] = growth inhibition of replicating M. tuberculosis, dose response, counter-screen, dry powder, IC90 (AID 651617); assay type: functional; conditions: Mycobacterium tuberculosis
[2] = inhibitors of non-replicating M. tuberculosis, dose response, luciferase, dry powder (AID 651620); assay type: functional; conditions: Mycobacterium tuberculosis
[3] = inhibitors of non-replicating M. tuberculosis, dose response, luciferase, dry powder (AID 651619); assay type: functional; conditions: Mycobacterium tuberculosis
cells [4] = experiment: cells
[5] = target: Oxysterols receptor LXR-beta (Homo sapiens, UniProt P55055); assay type: functional, cell-based;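 further: Cell-based luminescence dose-response assay of agonist activity at LXR, run as a confirmatory counterscreen to a daf-12 agonist screen; HEK293 cells with Gal4-LXR fusion and GAL4-driven luciferase reporter; agonist potency from rising luciferase signal of a Gal4-LXR reporter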
Phospholipase D1 = Phospholipase D1 (Homo sapiens, UniProt Q13393); experiment: PLD1 Cellular Concentration Response Study.; assay type: functional
Phospholipase D2 = Phospholipase D2 (Homo sapiens, UniProt O14939); experiment: PLD2 Cellular Concentration Response Study.; assay type: functional
[6] = target: RNA-editing ligase 1, mitochondrial (Trypanosoma brucei brucei, UniProt P86926); experiment: TbREL1 ligase inhibitors, dose response, biochemical, fluorescence, Trypanosoma brucei (AID 1117295); assay type: functional
[7] = HepG2 cell cytotoxicity, dose response, cytotoxicity control, plate reader, dry powder samples (AID 1159569); assay type: functional, cell-based;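 further: inhibitor potency with signal falling toward the positive control level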
[8] = P. falciparum ATP4 D1247Y mutant growth inhibitors, dose response, NITD609-resistant line, SYBR Green, dry powder (AID 1159571); assay type: functional, cell-based;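 further: parasites synchronized at ring stage by sorbitol before testing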
[9] = P. falciparum Dd2 growth inhibitors, dose response, SYBR Green, cherry-picked samples (AID 1159567); assay type: functional, cell-based
[10] = P. falciparum Dd2 growth inhibitors, dose response, SYBR Green, dry powder samples (AID 1159566); assay type: functional, cell-based;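 further: potency for growth inhibition with lower SYBR green DNA signal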
[11] = P. falciparum 3D7-ScDHODH growth inhibitors, dose response, SYBR Green, dry powder samples (AID 1159570); assay type: functional, cell-based;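 further: parasite growth measured after 72 hours of compound exposure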
[12] = Late stage results for the probe development effort to identify inhibitors of Plasmodium falciparum gametocytes: Luminescence-based cell-based high throughput dose response assay to identify inhibitors of viability of late stage Plasmodium falciparum gametocytes.; assay type: functional
[13] = HepG2 cell cytotoxicity, dose response, cytotoxicity control, plate reader, dry powder, set 6 (AID 743311); assay type: functional, cell-based
cells [14] = conditions: HEK293
[15] = P. falciparum Dd2 growth inhibitors, dose response, SYBR Green, dry powder samples, set 9 (AID 1159568); assay type: functional, cell-based
[16] = HepG2 cell cytotoxicity, dose response, cytotoxicity control, cherry-picked samples (AID 1159577); assay type: functional, cell-based
[17] = target: T1, Corticotropin-releasing factor receptor 2/Corticotropin-releasing factor-binding protein (Homo sapiens, UniProt P24387+Q13324); experiment: activators of CRF receptor 2 with binding protein – uHTS hits, confirmation (AID 602473); assay type: functional; conditions: read-out: EC50_Mean
T1 sequence (Q13324 whole entry): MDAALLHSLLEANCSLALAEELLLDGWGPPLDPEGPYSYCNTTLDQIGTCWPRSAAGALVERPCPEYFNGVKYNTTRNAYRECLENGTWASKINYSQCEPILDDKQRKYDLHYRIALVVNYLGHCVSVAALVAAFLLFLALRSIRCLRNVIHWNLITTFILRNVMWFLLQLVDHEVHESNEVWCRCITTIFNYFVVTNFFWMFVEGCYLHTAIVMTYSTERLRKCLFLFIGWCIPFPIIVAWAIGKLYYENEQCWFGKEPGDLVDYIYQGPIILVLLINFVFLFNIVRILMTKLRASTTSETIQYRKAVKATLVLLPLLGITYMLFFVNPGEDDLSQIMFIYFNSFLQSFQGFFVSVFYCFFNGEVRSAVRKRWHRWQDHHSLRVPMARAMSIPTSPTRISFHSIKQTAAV
T1 sequence (P24387 whole entry): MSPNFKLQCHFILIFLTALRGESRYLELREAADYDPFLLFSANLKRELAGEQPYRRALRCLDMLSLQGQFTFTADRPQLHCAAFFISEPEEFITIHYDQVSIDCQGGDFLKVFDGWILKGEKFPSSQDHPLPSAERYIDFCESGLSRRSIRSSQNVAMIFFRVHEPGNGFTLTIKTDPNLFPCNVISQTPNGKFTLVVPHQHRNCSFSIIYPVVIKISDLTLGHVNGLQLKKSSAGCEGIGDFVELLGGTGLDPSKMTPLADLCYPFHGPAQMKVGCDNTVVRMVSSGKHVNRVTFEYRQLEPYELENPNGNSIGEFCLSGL

[18] = HeLa 4N DNA content increase, dose response, cell-based, IC50 (AID 1117351); assay type: functional
[19] = HeLa 2N DNA content increase, dose response, cell-based, IC50 (AID 1117349); assay type: functional
[20] = target: T1, Corticotropin-releasing factor receptor 2/Corticotropin-releasing factor-binding protein; experiment: Dose Response confirmation of uHTS hits for small molecule antagonists of the CRF-binding protein and CRF-R2 receptor complex.; assay type: functional; conditions: read-out: IC50_Mean

Sequence of Oxysterols receptor LXR-beta (P55055 whole entry, the tested form may be a part): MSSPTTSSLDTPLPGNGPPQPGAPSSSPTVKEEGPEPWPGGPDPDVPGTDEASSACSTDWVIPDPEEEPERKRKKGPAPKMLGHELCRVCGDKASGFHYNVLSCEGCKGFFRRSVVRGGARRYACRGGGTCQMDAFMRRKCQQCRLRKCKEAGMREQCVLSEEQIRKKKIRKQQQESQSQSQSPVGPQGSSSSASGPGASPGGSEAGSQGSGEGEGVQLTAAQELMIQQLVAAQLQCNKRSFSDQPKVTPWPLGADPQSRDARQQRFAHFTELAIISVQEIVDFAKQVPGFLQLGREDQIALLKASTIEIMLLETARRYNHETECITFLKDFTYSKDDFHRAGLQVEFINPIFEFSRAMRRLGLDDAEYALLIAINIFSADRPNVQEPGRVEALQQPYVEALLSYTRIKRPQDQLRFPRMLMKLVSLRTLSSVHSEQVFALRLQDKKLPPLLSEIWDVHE
Sequence of RNA-editing ligase 1, mitochondrial (P86926 whole entry): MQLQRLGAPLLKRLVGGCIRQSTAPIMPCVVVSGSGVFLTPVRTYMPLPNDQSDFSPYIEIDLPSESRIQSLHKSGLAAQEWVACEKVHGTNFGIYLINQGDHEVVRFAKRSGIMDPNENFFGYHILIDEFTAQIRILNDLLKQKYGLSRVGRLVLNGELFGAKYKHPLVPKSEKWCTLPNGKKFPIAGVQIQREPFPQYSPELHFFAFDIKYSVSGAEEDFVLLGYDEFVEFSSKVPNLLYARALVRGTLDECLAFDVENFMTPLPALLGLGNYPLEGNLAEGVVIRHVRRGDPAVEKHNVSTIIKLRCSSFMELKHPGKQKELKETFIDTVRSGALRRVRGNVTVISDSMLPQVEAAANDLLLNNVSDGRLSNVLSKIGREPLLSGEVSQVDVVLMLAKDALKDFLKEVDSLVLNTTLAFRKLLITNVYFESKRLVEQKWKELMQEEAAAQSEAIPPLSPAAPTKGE
Sequence of Phospholipase D2 (O14939 whole entry): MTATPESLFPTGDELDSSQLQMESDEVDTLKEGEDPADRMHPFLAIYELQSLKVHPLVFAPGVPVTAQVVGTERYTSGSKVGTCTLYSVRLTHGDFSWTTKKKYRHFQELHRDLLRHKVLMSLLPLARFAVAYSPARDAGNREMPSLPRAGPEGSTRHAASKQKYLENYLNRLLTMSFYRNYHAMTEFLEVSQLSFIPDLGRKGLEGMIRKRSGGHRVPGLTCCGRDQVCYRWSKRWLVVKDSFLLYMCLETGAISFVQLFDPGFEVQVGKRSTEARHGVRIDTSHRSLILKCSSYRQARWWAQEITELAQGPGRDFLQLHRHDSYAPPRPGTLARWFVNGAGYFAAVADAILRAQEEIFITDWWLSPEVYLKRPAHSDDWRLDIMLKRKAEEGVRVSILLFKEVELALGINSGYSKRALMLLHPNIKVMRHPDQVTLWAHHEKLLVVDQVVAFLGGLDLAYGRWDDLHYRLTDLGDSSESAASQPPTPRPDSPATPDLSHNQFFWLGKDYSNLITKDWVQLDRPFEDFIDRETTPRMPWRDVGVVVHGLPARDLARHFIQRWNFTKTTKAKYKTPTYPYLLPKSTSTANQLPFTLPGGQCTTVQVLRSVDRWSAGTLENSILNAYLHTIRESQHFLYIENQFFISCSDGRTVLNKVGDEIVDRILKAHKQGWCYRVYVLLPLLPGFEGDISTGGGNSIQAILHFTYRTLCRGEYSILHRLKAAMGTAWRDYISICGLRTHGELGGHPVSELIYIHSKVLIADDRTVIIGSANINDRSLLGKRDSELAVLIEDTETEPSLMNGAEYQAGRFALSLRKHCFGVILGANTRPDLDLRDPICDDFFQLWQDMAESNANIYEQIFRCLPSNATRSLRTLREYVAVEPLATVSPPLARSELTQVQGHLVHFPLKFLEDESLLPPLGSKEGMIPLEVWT
Sequence of Phospholipase D1 (Q13393 whole entry): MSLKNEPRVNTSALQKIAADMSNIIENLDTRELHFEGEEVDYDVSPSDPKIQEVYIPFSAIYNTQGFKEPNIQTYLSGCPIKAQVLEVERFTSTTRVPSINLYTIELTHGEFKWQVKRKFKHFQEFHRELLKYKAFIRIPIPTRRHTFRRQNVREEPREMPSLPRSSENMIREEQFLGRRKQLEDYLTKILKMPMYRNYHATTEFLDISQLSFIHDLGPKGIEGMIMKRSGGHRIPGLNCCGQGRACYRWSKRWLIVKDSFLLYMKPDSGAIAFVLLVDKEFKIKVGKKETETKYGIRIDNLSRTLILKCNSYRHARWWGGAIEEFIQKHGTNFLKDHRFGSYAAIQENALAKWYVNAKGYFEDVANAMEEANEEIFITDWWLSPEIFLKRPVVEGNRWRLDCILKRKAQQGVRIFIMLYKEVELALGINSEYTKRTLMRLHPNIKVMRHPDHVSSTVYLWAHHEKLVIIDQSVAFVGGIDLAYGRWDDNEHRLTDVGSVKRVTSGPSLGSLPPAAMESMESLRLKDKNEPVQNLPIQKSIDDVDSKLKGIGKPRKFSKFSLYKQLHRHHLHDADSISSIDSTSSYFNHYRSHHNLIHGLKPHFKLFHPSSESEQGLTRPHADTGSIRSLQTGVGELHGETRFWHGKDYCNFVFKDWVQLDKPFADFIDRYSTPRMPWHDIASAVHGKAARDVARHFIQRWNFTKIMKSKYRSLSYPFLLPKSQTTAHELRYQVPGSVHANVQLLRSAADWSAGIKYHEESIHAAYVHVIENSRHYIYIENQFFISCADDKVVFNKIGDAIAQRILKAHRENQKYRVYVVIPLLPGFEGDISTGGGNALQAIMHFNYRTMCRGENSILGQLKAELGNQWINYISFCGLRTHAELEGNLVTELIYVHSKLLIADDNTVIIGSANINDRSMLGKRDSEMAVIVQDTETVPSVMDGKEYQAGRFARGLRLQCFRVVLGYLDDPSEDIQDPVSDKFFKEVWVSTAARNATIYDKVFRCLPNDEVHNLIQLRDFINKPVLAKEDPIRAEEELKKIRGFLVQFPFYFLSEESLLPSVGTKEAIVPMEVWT

[N-]=[N+]=NCCOCCNC(=O)CCCOc1ccc(CSc2nnc(-c3ccc(F)cc3)o2)nc1
IC90 [1]: 250 µM (active) | IC90 [2]: 16 µM (active) | IC90 [3]: 16 µM (active)

CCOC(=O)c1s/c(=N\C(=O)c2cccs2)n(C)c1C
EC50 (cells [4]): > 67.5 µM (inactive) | EC50 [5]: > 67.5 µM (inactive)

O=C(NCCN1CCC2(CC1)C(=O)NCN2CC1CC1)c1ccc2ccccc2c1
IC50 (Phospholipase D1): 20 µM (active) | IC50 (Phospholipase D2): 2.05 µM (active)

C=CCNC1=NC(c2cccc(F)c2)C(C(=O)OC)=C(C)N1Cc1cccc(C(F)(F)F)c1 (stereo not drawn)
IC50 [6]: > 96.6 µM (inactive)

C/C=C/c1ccc([C@H]2[C@@H](CO)N(CC3CCCC3)[C@@H]2CNC(=O)NC(C)C)cc1
AC50 [7]: 25.4 µM (active) | AC50 [8]: 2.41 µM (active) | AC50 [9]: 2.71 µM (active) | AC50 [10]: 1.91 µM (active) | AC50 [11]: 2.73 µM (active)

O=C(Nc1nccs1)c1cn(-c2ccccc2)nc1-c1cccnc1
IC50 [12]: > 74.4 µM (inactive)

Cc1ccc(C(C)C)c(OCCn2c(N)nc3ccccc32)c1
AC50 [13]: 4.5 µM (active) | AC50 (cells [14]): 19.1 µM (active)

C(=C\c1ccc([C@H]2[C@@H]3CN(Cc4nccs4)C[C@H]2N3)cc1)/c1ccccc1
AC50 [15]: 11.2 µM (active)

Cc1cccc(-c2ccc([C@@H]3[C@@H]4CN(C(=O)C5CCCC5)C[C@H]3N4)cc2)c1
AC50 [16]: 10.7 µM (active) | AC50 [9]: 4.39 µM (active)

Nc1nc(F)nc2c1ncn2[C@@H]1O[C@H](CO)[C@@H](O)[C@@H]1O [FLUDARABINE]
EC50 [17]: > 53 µM (inactive) | IC50 [18]: > 10 µM (inactive) | IC50 [19]: > 10 µM (inactive) | IC50 [20]: > 47.1 µM (inactive)

From ChEMBL document CHEMBL1201862, “PubChem BioAssay data set” (2004)
